{"source": "patent US6545000B1", "about": "“[1,2,4]triazolo[1,5-c]pyrimidine derivatives” (Kyowa Hakko Kogyo Co., Ltd., priority 1998, dated 2003)", "key": {"[1]": {"test_system": "CGS 21680-induced catalepsy", "assay": "Activity on CGS 21680-induced catalepsy", "assay_type": "in vivo, mouse", "conditions": "10 mg/kg oral; for inhibition in vivo at 10 mg/kg: Mus musculus, 1 h, percentage reduction of total score vs control group, read-out: Remission ratio (%); for Total score: total catalepsy score of 10 mice (maximum 50 points), 1 hour after administration", "protocol": "This test was carried out using 10 animals per group of male ddY mice of 5 week age (22 to 25 g in body weight, Japan SLC). […] One hour after the administration of the test compound, only forelimbs or only hindlimbs of each animal were laid on a vertically arranged stand made of acryl, having a size of 4.5 cm in height and 1.0 cm in width, to measure catalepsy symptoms. All of the test compounds were administered orally in a dose of 10 mg/kg.\n(§1) The effect was judged by total catalepsy scores of 10 animals in one group (the maximum score is 50 points). When total score was 40 points or less, the activity of the compounds was judged positive. The number of animals showing remission of catalepsy was expressed by the number of cases in which the catalepsy score was 4 points or less in 10 cases. The catalepsy remission ratio was expressed as the percentage reduction of the total score in the test compound-administered group to the total score in the control group."}, "[2]": {"test_system": "haloperidol-induced catalepsy", "assay": "Activity on haloperidol-induced catalepsy", "assay_type": "in vivo, mouse", "conditions": "10 mg/kg oral; for Number of animals showing remission: catalepsy score 4 points or less, out of 10 mice; for Remission ratio (%): percentage reduction of total score vs control group; for Total score: total catalepsy score of 10 mice (maximum 50 points), haloperidol 1.0 mg/kg i.p.", "protocol": "Parkinson's disease is a disease based on the degeneration and cell death of the nigrostriatal dopaminergic neuron. When haloperidol (dopamine D2 antagonist) is administered, catalepsy is induced by the block of postsynaptic D2 receptor. This haloperidol-induced catalepsy is known as a classic model in which symptoms of Parkinson's disease are produced by drug administration (European Journal of Pharmacology, 182: 327 (1990) and U.S. Pat. No. 3,991,207).\nThis test was carried out using 10 animals per group of male ddY mice of 5 week age (22 to 24 g in body weight, Japan SLC). Haloperidol (manufactured by Janssen) was suspended in 0.5% MC and administered intraperitoneally into mice at a dose of 1.0 mg/kg. Each test compound was suspended in distilled water for injection containing 0.5% MC (manufactured by Otsuka Pharmaceutical Co., Ltd.) (10 mg/kg). Also, as a control drug, 100 mg/kg of L-DOPA and 25 mg/kg of benserazide were used as a solution by dissolving them into distilled water for injection containing 0.5% MC (manufactured by Otsuka Pharmaceutical Co., Ltd.) One hour after the intraperitoneal injection of haloperidol, the suspension containing each of the test compounds or the solution containing the control drug was orally administered (0.1 mL per 10 g mouse body weight) and, one hour after the administration of the test compound or the control drug, only forelimbs or only hindlimbs of each animal were laid on a stand having a size of 4.5 cm in height and 1.0 cm in width, to measure catalepsy symptoms. The catalepsy score was evaluated by the judging criteria shown in the above-described Table 3.\nas §1, with “points). When the total score” for “points). When total score”, “of the test compounds was” for “of the compounds was”"}, "[3]": {"test_system": "MPTP-treated common marmoset", "assay": "Parkinson's disease model (common marmoset treated with MPTP)", "assay_type": "in vivo", "conditions": "motor disability score (0-17 points), 4 animals", "quoted_text": "This test was carried out using 4 animals per group of female and male common marmosets of 2 to 3 year age (300 to 375 g in body weight, CLEA Japan). MPTP (manufactured by RBI) was dissolved in physiological saline for injection (manufactured by Otsuka Pharmaceutical Co., Ltd.) and administered to common marmoset once a day for 5 days by subcutaneous injection in a dose of 2.0 mg/kg. Six weeks or more after the administration, animals showing chronic symptoms of Parkinson's disease were used in the test. Each test compound was used by suspending it in 0.3% Tween 80 and 10% sucrose solution. One hour before the administration of the test compound, the animals to be tested were put into an observation cage (equipped with a spontaneous locomotor count measuring apparatus) to adapt them to the environment. Pre-motor disability before administration of the test compound was scored, and was compared with the motor disability score after administration of the test compound. Symptoms of Parkinson's disease were observed from a one way see through window at 30 minutes' interval for 8 hours to score their motor disability. The spontaneous locomotor count was measured at 30 minutes' interval for 12 hours by a computer-controlled automatic measuring apparatus. […]"}, "[4]": {"biological_target": "T1, Rat A2A receptor (Rattus norvegicus, UniProt P30543)", "T1 construct": "from tissue; host or cells: rat corpus striatum membrane preparation", "T1 sequence (P30543 whole entry)": "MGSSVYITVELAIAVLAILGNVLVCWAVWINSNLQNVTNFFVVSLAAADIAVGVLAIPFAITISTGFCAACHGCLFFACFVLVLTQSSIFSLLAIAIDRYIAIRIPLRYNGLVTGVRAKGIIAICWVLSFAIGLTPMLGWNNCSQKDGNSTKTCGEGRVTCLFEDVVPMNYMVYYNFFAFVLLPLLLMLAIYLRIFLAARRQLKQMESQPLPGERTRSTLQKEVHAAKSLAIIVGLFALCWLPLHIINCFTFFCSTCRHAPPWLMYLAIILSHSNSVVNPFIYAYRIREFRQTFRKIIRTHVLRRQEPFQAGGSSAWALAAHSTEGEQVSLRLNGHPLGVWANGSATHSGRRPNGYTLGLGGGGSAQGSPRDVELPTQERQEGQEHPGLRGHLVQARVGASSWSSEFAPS", "assay": "Adenosine A2A receptor binding test (3H-CGS 21680 binding)", "conditions": "rat corpus striatum", "protocol": "The final precipitate was suspended in 50 mmol/L Tris-HCl buffer (containing 10 mmol/L magnesium chloride and 0.02 unit/mg tissue of adenosine deaminase (manufactured by Sigma Co.)) by adding the buffer to the final precipitate so as to give a tissue concentration of 5 mg (wet weight)/mL.\nInhibition ratio (%)={1−(amount of the binding in the presence of the test compound−amount of the non-specific binding)/(amount of the total binding−amount of the non-specific binding)}×100"}, "[5]": {"test_system": "reserpine-induced catalepsy", "assay": "Activity on reserpine-induced catalepsy", "assay_type": "in vivo, mouse", "conditions": "oral; for Remission ratio (%): percentage reduction of total score vs control group; for Total score: total catalepsy score of 10 mice (maximum 50 points), reserpine 5 mg/kg s.c., 1 hour after administration", "protocol": "This test was carried out using 10 animals per group of male ddY mice of 5 week age (22 to 24 g in body weight, Japan SLC). […] Reserpine (5 mg/kg: apoplon, Daiichi Pharmaceutical Co., Ltd.; diluted with distilled water) was subcutaneously administered, and catalepsy-inducing activity was observed from 18 hours after the administration. […] Each test compound was suspended in distilled water for injection containing 0.5% MC (manufactured by Otsuka Pharmaceutical Co., Ltd.) The suspension containing each of the test compounds or a solution containing no test compound (distilled water for injection containing 0.5% MC (manufactured by Otsuka Pharmaceutical Co., Ltd.); control) was orally administered (0.1 mL per 10 g mouse body weight) and, one hour after the administration of test compound, only forelimbs or only hindlimbs of each animal were laid on a stand having a size of 4.5 cm in height and 1.0 cm in width, to measure catalepsy symptoms.\nas §1, with “maximum” for “maximum score”, “When the” for “When”, “test compound” for “compounds”"}, "[6]": {"test_system": "ddY male mice", "assay": "Forced swimming method (measurement of immobility time)", "assay_type": "in vivo, mouse", "conditions": "oral, one hour before the test; 4 minutes (240 seconds) measurement; 10 mice", "protocol": "Ten animals per group of ddY male mice (21 to 26 g in body weight, Japan SLC) were used as the test animal. During the preliminary feeding period, they were allowed to have feed and water freely in an animal room of a room temperature of 23±1° C. and a humidity of 55±5%. Animals showing abnormal reactions in terms of spontaneous activity, myotonia, eyesight or the like were excluded beforehand. The test compound was suspended in a 0.3% Tween 80 solution and orally administered one hour before the test. In the negative control group, 10 mL/kg of a 0.3% Tween 80 solution alone was orally administered. Measurement of immobility time was carried out in accordance with the method of Porsolt (Arch. int Pharmacodyn., 229: 327-336 (1977)). That is, a cylindrical transparent acrylic water tank (10 cm in diameter and 25 cm in height) was filled with 9 cm in depth of water having a temperature of 23±1° C., and mice were forced to swim for 6 minutes. When mice are put into water, they immediately start to swim trying to escape from the tank, but the motion gradually decreases 1 to 2 minutes thereafter. […] In order to reduce effects of daily rhythm, the test was carried out by using 5 of the 10 animals per group in the morning, and the remaining 5 animals in the afternoon. […]"}}, "data": [{"smiles": "CC(C)(O)CN1CCN(c2cc3nc(-c4ccco4)nn3c(N)n2)CC1", "note": "[Compound 1, 5-Amino-2-(2-furyl)-7-(4-(2-hydroxy-2-methylpropyl)piperazinyl)[1,2,4]triazolo[1,5-c]pyrimidine]", "values": [{"measurement": "inhibition in vivo at 10 mg/kg", "setting": "[1]", "result": 100, "unit": "%"}, {"measurement": "Total score", "setting": "[1]", "result": 0}, {"measurement": "Number of animals showing remission", "setting": "[2]", "result": 10}, {"measurement": "Remission ratio (%)", "setting": "[2]", "result": 100, "unit": "%"}, {"measurement": "Total score", "setting": "[2]", "result": 0}, {"measurement": "Average score at maximum improvement after administration", "setting": "[3]; after administration", "result": "4.75 ± 0.48 (p < 0.0256)"}, {"measurement": "Average score before administration", "setting": "[3]; before administration of the test compound", "result": "12.75 ± 0.25"}, {"measurement": "Rat A2A receptor inhibition ratio (%)", "setting": "[4]; 10^−6 mol/L test compound", "result": 81, "unit": "%"}, {"measurement": "Rat A2A receptor inhibition ratio (%)", "setting": "[4]; 10^−7 mol/L test compound", "result": 42, "unit": "%"}, {"measurement": "Remission ratio (%)", "setting": "[5]", "result": 72, "unit": "%"}, {"measurement": "Total score", "setting": "[5]", "result": 14}]}, {"smiles": "Cc1cc(CN2CCN(c3cc4nc(-c5ccco5)nn4c(N)n3)CC2)no1", "note": "[Compound 21, 5-Amino-2-(2-furyl)-7-(4-(5-methylisoxazol-3-ylmethyl)piperazinyl)[1,2,4]triazolo[1,5-c]pyrimidine]", "values": [{"measurement": "inhibition in vivo at 10 mg/kg", "setting": "[1]", "result": 100, "unit": "%"}, {"measurement": "Total score", "setting": "[1]", "result": 0}, {"measurement": "Number of animals showing remission", "setting": "[2]", "result": 10}, {"measurement": "Remission ratio (%)", "setting": "[2]", "result": 100, "unit": "%"}, {"measurement": "Total score", "setting": "[2]", "result": 0}, {"measurement": "Rat A2A receptor inhibition ratio (%)", "setting": "[4]; 10^−6 mol/L test compound", "result": 90, "unit": "%"}, {"measurement": "Rat A2A receptor inhibition ratio (%)", "setting": "[4]; 10^−7 mol/L test compound", "result": 65, "unit": "%"}, {"measurement": "Remission ratio (%)", "setting": "[5]", "result": 66, "unit": "%"}, {"measurement": "Total score", "setting": "[5]", "result": 17}, {"measurement": "Immobility time (second)", "setting": "[6]", "result": "7.6 ± 3.2 (p < 0.01) second"}]}]}
